For the experiment, the target named is T1, G protein-coupled receptor 119 (GPR-119) (Mesocricetus auratus, UniProt A0A1U8CD06).
T1 construct: hamster-derived β-cells containing G protein-coupled receptor 119 (GPR-119), HIT-T15 cells; host or cells: HIT-T15 (hamster pancreatic β-cells)
T1 sequence (A0A1U8CD06 1-334): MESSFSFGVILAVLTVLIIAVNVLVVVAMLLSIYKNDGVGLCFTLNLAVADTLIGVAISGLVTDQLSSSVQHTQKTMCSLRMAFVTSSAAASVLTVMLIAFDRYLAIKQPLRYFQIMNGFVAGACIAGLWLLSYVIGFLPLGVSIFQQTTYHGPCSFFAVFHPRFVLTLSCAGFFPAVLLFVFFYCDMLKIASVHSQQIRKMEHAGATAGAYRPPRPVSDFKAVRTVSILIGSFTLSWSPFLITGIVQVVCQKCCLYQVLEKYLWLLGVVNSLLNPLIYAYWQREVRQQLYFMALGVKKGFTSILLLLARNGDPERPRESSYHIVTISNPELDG
As to the kind of experiment: cAMP activity in HIT-T15 cells (cAMP dynamic kit, FRET). The experiment is classed as cell-based, hamster. In outline: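 Hamster HIT-T15 cells (60,000/well) were treated next day with compound at six concentrations, 0.0032–10 μM, for 1 h at 37° C. Cells were then lysed and cAMP measured by competitive HTRF immunoassay (D2-cAMP, cryptate anti-cAMP). Activity was derived as the change in FRET signal relative to DMSO.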

Setting [1] is: 1 hour at 37° C., six concentrations 0.0032 to 10 μM, read-out: EC50.

Like-named read-outs stand apart in the source and are kept apart here.

As to `O=C(Oc1ccc([N+](=O)[O-])cc1)N1CCC(COc2ccc(C3=CCC(C(=O)N4CCCC4)CC3)cc2F)CC1` (stereo not shown) [Example 404, 4-nitrophenyl 4-((2-fluoro-4-(4-(pyrrolidine-1-carbonyl)cyclohex-1-enyl)phenoxy)methyl)piperidine-1-carboxylate], the EC50 under setting [1] was determined as 55 nM.

In the case of `CC(OC(=O)N1CCC(COc2ccc(C3=CCC(C(=O)N4CCOCC4)CC3)cc2F)CC1)C(F)(F)F` (stereo not shown) [Example 440, 1,1,1-trifluoropropan-2-yl 4-((2-fluoro-4-(4-(morpholine-4-carbonyl)cyclohex-1-enyl)phenoxy)methyl)piperidine-1-carboxylate], the EC50 under setting [1] is 8.7 nM and the EC50 (Table 2, read-out: EC50 value) was not above 50 nM.

For `CCc1cnc(N2CCC(COc3ccc(C4=CCC(C(=O)N5CC(F)(F)C(F)(F)C5)CC4)c(F)c3)CC2)nc1` (stereo not shown) [Example 455, (4-(4-((1-(5-ethylpyrimidin-2-yl)piperidin-4-yl)methoxy)-2-fluorophenyl)cyclohex-3-enyl)(3,3,4,4-tetrafluoropyrrolidin-1-yl)methanone], the concentration for a half-maximal effect (EC50) under setting [1] was 18 nM and the half-maximal effective concentration (EC50) (Table 2, read-out: EC50 value) was not above 50 nM.

For `CCc1cnc(N2CCC(COc3ccc(C4=CCC(C(=O)N5CCCC5)CC4)cc3F)CC2)nc1` (stereo not shown) [Example 293, (4-(4-((1-(5-ethylpyrimidin-2-yl)piperidin-4-yl)methoxy)-3-fluorophenyl)cyclohex-3-enyl)(pyrrolidin-1-yl)methanone], the EC50 runs as follows: under setting [1], 18 nM; (Table 2, read-out: EC50 value) not above 50 nM.

Regarding `CCc1cnc(N2CCC(COc3ccc(C4=CCC(C(=O)N5CCC[C@H]5CO)CC4)cc3)CC2)nc1` (single isomer, unassigned; (-)) [Example 465], the EC50 under setting [1] amounted to 110 nM.

In the case of `CCc1cnc(N2CCC(COc3ccc(C4=CCC(C(=O)N5CCC6(CC5)OCCO6)CC4)cc3F)CC2)nc1` (stereo not shown) [Example 306, (4-(4-((1-(5-ethylpyrimidin-2-yl)piperidin-4-yl)methoxy)-3-fluorophenyl)cyclohex-3-enyl)(1,4-dioxa-8-azaspiro[4.5]decan-8-yl)methanone], the EC50 by setting is: (EC50 (nM), 1 hour at 37° C., six concentrations 0.0032 to 10 μM) 8.9 nM; (EC50 value, Table 2) not above 50 nM.

Consider `CCc1cnc(N2CCC(COc3ccc(C4=CCC(C(=O)N5CC(F)(F)C(F)(F)C5)CC4)cc3F)CC2)nc1` (stereo not shown) [Example 460, (4-(4-((1-(5-ethylpyrimidin-2-yl)piperidin-4-yl)methoxy)-3-fluorophenyl)cyclohex-3-enyl)(3,3,4,4-tetrafluoropyrrolidin-1-yl)methanone], for which the EC50 reads like this: under setting [1], 12 nM; (Table 2, read-out: EC50 value) not above 50 nM.

Consider `CCc1cnc(N2CCC(COc3ccc(C4=CCC(C(=O)N5CCCCC5)CC4)cc3C(F)(F)F)CC2)nc1` (stereo not shown) [Example 375, (4-(4-((1-(5-ethylpyrimidin-2-yl)piperidin-4-yl)methoxy)-3-(trifluoromethyl)phenyl)cyclohex-3-enyl)(piperidin-1-yl)methanone], for which, under setting [1], the EC50 was found to be 110 nM.

In the case of `CCc1cnc(N2CCC(COc3ccc(C4=CCC(C(=O)NC5CCCC5)CC4)cc3F)CC2)nc1` (stereo not shown) [Example 304, N-cyclopentyl-4-(4-((1-(5-ethylpyrimidin-2-yl)piperidin-4-yl)methoxy)-3-fluorophenyl)cyclohex-3-enecarboxamide], the EC50 was 20 nM under setting [1] and not above 50 nM (Table 2, read-out: EC50 value).

For `CCc1cnc(N2CCC(COc3ccc(C4=CCC(C(=O)N5CCCC5)CC4)cc3C)CC2)nc1` (stereo not shown) [Example 416, (4-(4-((1-(5-ethylpyrimidin-2-yl)piperidin-4-yl)methoxy)-3-methylphenyl)cyclohex-3-enyl)(pyrrolidin-1-yl)methanone], the EC50 under setting [1] is 75 nM.

With `CCN1CCN(C(=O)C2CC=C(c3ccc(OCC4CCN(C(=O)OC(C)(C)C)CC4)cc3)CC2)CC1` (stereo not shown) [Example 203, tert-butyl 4-((4-(4-(4-ethylpiperazine-1-carbonyl)cyclohex-1-enyl)phenoxy)methyl)piperidine-1-carboxylate], the EC50 (Table 2, read-out: EC50 value) was not above 50 nM.

`CCc1cnc(N2CCC(COc3ccc(C4=CCC(C(=O)N5CCC5)CC4)cc3F)CC2)nc1` (stereo not shown) [Example 301, azetidin-1-yl(4-(4-((1-(5-ethylpyrimidin-2-yl)piperidin-4-yl)methoxy)-3-fluorophenyl)cyclohex-3-enyl)methanone]: the 50% effective concentration (EC50) reads like this: under setting [1], 19 nM; (Table 2, read-out: EC50 value) not above 50 nM.

Regarding `CC(C)(C)OC(=O)N1CCC(COc2ccc(C3=CCC(C(=O)N4CCC(=NO)CC4)CC3)nc2)CC1` (stereo not shown) [Example 344, tert-butyl 4-((6-(4-(4-(hydroxyimino)piperidine-1-carbonyl)cyclohex-1-enyl)pyridin-3-yloxy)methyl)piperidine-1-carboxylate], the EC50 is 45 nM under setting [1] and not above 50 nM (Table 2, read-out: EC50 value).

As to `CC(C)(C)OC(=O)N1CCC(COc2ccc(C3=CCC(C(=O)N4CCOCC4)CC3)cc2F)CC1` (single isomer, unassigned; (-)) [Example 443, (−)-tert-butyl 4-((2-fluoro-4-(4-(morpholine-4-carbonyl)cyclohex-1-enyl)phenoxy)methyl)piperidine-1-carboxylate], the EC50 under setting [1] turned out to be 38 nM.

In the case of `CCc1cnc(N2CCC(COc3ccc(C4=CCC(C(=O)N5CCC(N6CCCC6)CC5)CC4)cc3F)CC2)nc1` (stereo not shown) [Example 298, (4-(4-((1-(5-ethylpyrimidin-2-yl)piperidin-4-yl)methoxy)-3-fluorophenyl)cyclohex-3-enyl)(4-(pyrrolidin-1-yl)piperidin-1-yl)methanone], the EC50 under setting [1] was 150 nM.

Turning to `CC(C)(C)OC(=O)N1CCC(COc2ccc(C3=CCC(C(=O)N4CCN(CC5CC5)CC4)CC3)cc2)CC1` (stereo not shown) [Example 256, tert-butyl 4-((4-(4-(4-(cyclopropylmethyl)piperazine-1-carbonyl)cyclohex-1-enyl)phenoxy)methyl)piperidine-1-carboxylate], the EC50 (Table 2, read-out: EC50 value) is not above 50 nM.

With `CCc1cnc(N2CCC(COc3ccc(C4=CCC(C(=O)N5CCC(O)CC5)CC4)cn3)CC2)nc1` (stereo not shown) [Example 353, (4-(6-((1-(5-ethylpyrimidin-2-yl)piperidin-4-yl)methoxy)pyridin-3-yl)cyclohex-3-enyl)(4-hydroxypiperidin-1-yl)methanone], the EC50 under setting [1] is 58 nM.

With `CON=C1CCN(C(=O)C2CC=C(c3ccc(OCC4CCN(c5nc(C(C)C)no5)CC4)cc3)CC2)CC1` (stereo not shown) [Example 410, (4-(4-((1-(3-isopropyl-1,2,4-oxadiazol-5-yl)piperidin-4-yl)methoxy)phenyl)cyclohex-3-enyl)(4-(methoxyimino)piperidin-1-yl)methanone], the concentration giving a half-maximal response (EC50) under setting [1] came out at 14 nM.

For `CON=C1CCN(C(=O)C2CC=C(c3ccc(OCC4CCN(C(=O)OC(C)(C)C)CC4)cc3)CC2)CC1` (stereo not shown) [Example 270, tert-butyl 4-((4-(4-(4-(methoxyimino)piperidine-1-carbonyl)cyclohex-1-enyl)phenoxy)methyl)piperidine-1-carboxylate], the EC50 (Table 2, read-out: EC50 value) is not above 50 nM.

Regarding `CC(C)c1noc(N2CCC(COc3ccc(C4=CCC(C(=O)N5CCCCC5)CC4)cc3F)CC2)n1` (stereo not shown) [Example 332, (4-(3-fluoro-4-((1-(3-isopropyl-1,2,4-oxadiazol-5-yl)piperidin-4-yl)methoxy)phenyl)cyclohex-3-enyl)(piperidin-1-yl)methanone], the EC50 is 6.7 nM under setting [1] and not above 50 nM (Table 2, read-out: EC50 value).

As to `CCc1cnc(N2CCC(COc3ccc(C4=CCC(C(=O)N5CCOCC5)CC4)c(F)c3)CC2)nc1` (stereo not shown) [Example 422, (4-(4-((1-(5-ethylpyrimidin-2-yl)piperidin-4-yl)methoxy)-2-fluorophenyl)cyclohex-3-enyl)(morpholino)methanone], the EC50 runs as follows: under setting [1], 18 nM; (Table 2, read-out: EC50 value) not above 50 nM.

On to `CCc1cnc(N2CCC(COc3ccc(C4=CCC(C(=O)N5CCOCC5)CC4)cc3C)CC2)nc1` (stereo not shown) [Example 417, (4-(4-((1-(5-ethylpyrimidin-2-yl)piperidin-4-yl)methoxy)-3-methylphenyl)cyclohex-3-enyl)(morpholino)methanone], for which the EC50 is, setting by setting: under setting [1], 50 nM; (Table 2, read-out: EC50 value) not above 50 nM.

For `CCc1cnc(N2CCC(COc3ccc(C4=CCC(C(=O)N5CCC[C@@H]5CO)CC4)c(F)c3)CC2)nc1` (stereo partly drawn) [Example 427, (4-(4-((1-(5-ethylpyrimidin-2-yl)piperidin-4-yl)methoxy)-2-fluorophenyl)cyclohex-3-enyl)((R)-2-(hydroxymethyl)pyrrolidin-1-yl)methanone], the EC50 reads like this: under setting [1], 32 nM; (Table 2, read-out: EC50 value) not above 50 nM.

For `CC(C)c1noc(N2CCC(COc3ccc(C4=CCC(C(=O)N5CCC(=O)C5)CC4)cc3)CC2)n1` (stereo not shown) [Example 251], the EC50 is, setting by setting: under setting [1], 22 nM; (Table 2, read-out: EC50 value) not above 50 nM.

As to `CC(C)c1noc(N2CCC(COc3ccc(C4=CCC(C(=O)NCC(C)(C)CO)CC4)cc3F)CC2)n1` (stereo not shown) [Example 371, 4-(3-fluoro-4-((1-(3-isopropyl-1,2,4-oxadiazol-5-yl)piperidin-4-yl)methoxy)phenyl)-N-(3-hydroxy-2,2-dimethylpropyl)cyclohex-3-enecarboxamide], the EC50 runs as follows: under setting [1], 39 nM; (Table 2, read-out: EC50 value) not above 50 nM.

Consider `CC(C)(C)OC(=O)N1CCC(COc2ccc(C3=CCC(C(=O)N4CCc5ccccc5C4)CC3)cc2)CC1` (stereo not shown) [Example 239, tert-butyl 4-((4-(4-(1,2,3,4-tetrahydroisoquinoline-2-carbonyl)cyclohex-1-enyl)phenoxy)methyl)piperidine-1-carboxylate], for which, for the setting “Table 2, read-out: EC50 value”, the EC50 is not above 50 nM.

As a reminder, the EC50 is the concentration needed to bring the measured effect to its halfway point.

Source of the values: US10723699B2 (Hyundai Pharm Co., Ltd., priority 2015, dated 2020).
